The results in this text go back to ChEMBL document CHEMBL1149999, “Synthesis and pharmacological activity of a macrocyclic benzamide” (Bioorg Med Chem Lett, 1995).

Holding throughout (type): tissue-based
One assay deals with D(2) dopamine receptor (Rattus norvegicus, UniProt P61169). The experiment in a line: Binding affinity against Dopamine receptor D2 using [3H]spiperone as radioligand in rat striatum.
In assay [1] the target is T1, Serotonin 3 (5-HT3) receptor (Rattus norvegicus, UniProt P35563+Q9JJ16).
T1 sequence (P35563 whole entry): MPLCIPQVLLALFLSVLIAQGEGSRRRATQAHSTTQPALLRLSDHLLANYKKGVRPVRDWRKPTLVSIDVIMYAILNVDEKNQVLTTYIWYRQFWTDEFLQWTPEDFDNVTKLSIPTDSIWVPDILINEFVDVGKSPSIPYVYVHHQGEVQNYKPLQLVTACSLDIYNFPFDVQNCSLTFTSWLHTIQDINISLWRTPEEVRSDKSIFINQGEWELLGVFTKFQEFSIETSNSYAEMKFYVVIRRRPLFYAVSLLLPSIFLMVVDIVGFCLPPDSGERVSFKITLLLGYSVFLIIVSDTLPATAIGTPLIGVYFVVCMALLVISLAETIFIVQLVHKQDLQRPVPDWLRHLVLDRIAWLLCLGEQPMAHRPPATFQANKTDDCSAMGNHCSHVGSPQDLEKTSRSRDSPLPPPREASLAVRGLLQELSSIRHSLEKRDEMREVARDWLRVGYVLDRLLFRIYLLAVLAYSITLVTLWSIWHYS
T1 sequence (Q9JJ16 whole entry): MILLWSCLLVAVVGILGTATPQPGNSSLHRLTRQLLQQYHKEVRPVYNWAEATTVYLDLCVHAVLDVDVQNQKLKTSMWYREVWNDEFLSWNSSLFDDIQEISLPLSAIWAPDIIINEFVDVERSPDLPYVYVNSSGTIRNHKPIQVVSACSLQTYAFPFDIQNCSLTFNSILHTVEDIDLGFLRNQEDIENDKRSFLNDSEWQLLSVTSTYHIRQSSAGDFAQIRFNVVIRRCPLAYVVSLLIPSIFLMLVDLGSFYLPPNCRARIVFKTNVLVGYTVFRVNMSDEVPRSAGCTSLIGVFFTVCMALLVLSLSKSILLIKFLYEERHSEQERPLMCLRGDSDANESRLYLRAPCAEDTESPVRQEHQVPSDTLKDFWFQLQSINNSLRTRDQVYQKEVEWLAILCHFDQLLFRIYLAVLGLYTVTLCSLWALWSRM
The experiment in a line: Binding affinity against 5-hydroxytryptamine 3 receptor using [3H]BRL-43694 as radioligand in rat posterior cortex.

For assay [2], the target named is 5-hydroxytryptamine receptor 4 (Rattus norvegicus, UniProt Q62758). The experiment in a line: Binding affinity against 5-hydroxytryptamine 4 receptor using [3H]GR-113808 as radioligand in rat striatum.
5-hydroxytryptamine receptor 4, sequence (Q62758 whole entry): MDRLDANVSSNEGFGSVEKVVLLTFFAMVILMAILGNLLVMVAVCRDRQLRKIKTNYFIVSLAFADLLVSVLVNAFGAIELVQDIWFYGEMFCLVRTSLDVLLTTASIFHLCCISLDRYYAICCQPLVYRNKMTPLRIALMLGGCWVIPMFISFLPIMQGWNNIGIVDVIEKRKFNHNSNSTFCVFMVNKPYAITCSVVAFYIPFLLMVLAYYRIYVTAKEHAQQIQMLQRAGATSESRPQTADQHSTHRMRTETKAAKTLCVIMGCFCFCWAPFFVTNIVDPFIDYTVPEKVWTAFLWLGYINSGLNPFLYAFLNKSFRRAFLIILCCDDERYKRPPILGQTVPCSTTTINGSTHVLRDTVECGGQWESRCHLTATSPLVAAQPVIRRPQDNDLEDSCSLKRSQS

Each structure is given as a SMILES string. pKi: −log10 of the molar value. A value given as a limit tells only on which side of the number the result lay.

D(2) dopamine receptor, sequence (P61169 whole entry): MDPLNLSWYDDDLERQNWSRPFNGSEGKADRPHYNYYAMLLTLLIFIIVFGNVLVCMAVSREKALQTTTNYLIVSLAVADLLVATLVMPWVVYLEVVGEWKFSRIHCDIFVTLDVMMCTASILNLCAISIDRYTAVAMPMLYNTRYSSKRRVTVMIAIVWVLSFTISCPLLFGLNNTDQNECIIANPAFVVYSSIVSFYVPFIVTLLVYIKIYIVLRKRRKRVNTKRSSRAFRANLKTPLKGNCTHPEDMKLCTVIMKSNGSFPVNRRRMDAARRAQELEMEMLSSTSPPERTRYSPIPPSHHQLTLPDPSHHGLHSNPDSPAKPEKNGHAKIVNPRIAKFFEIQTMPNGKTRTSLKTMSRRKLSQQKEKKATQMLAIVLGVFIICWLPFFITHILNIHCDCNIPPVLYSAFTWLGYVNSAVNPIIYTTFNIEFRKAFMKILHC

By pKi is commonly meant −log10 of the Ki, conventionally taken in molar units. A higher pKi goes with a small Ki. Turning to `Nc1cc2c(cc1Cl)C(=O)NC1CCN(CCOCCO2)CC1`, the pKi at D(2) dopamine receptor was < 6.00; in assay [1] it was 7.27; in assay [2] it was 7.53.
The matching figures for `COc1cc(N)c(Cl)cc1C(=O)NC1CC2CCC(C1)N2Cc1ccccc1` (centres undefined): 9.55, < 6.00 and 6.63.
The matching figures for `COc1cc(N)c(Cl)cc1C(=O)NC1CCN(C)CC1`: < 6.00, 6.57 and 6.08.
Regarding `COc1cc(N)c(Cl)cc1C(=O)N[C@@H]1CN2CCC1CC2`, the pKi is < 6.00 at D(2) dopamine receptor and 6.42 in assay [2].
For `COc1cc(N)c(Cl)cc1C(=O)NC1CC2CCC(C1)N2C` (stereo in doubt), the negative-log Ki (pKi) at D(2) dopamine receptor is < 6.00; in assay [1] it was 9.10; in assay [2], 7.32.
The matching figures for `COc1cc(N)c(Cl)cc1C(=O)NC1CC2CCC(C1)N2C` (stereo in doubt; 5): < 6.00, 7.38 and < 6.00.
Take `COc1cc(N)c(Cl)cc1C(=O)NC1CCN(Cc2ccccc2)CC1` [CLEBOPRIDE]: the values for the pKi in assay [1] and in assay [2] were < 6.00 and 6.98, respectively.
